Measurements published in ChEMBL document CHEMBL5113519, “Discovery of Novel Imidazo[4,5-c]quinoline Derivatives to Treat Inflammatory Bowel Disease (IBD) by Inhibiting Multiple Proinflammatory Signaling Pathways and Restoring Intestinal Homeostasis” (J Med Chem, 2022).
Calls of active or inactive are those of the source. No cut-off for these calls is given here.

Experiments:
[1] = Cytotoxicity against human GM00637 cells assessed as inhibition of cell growth measured after 24 hrs by CCK-8 method; type: toxicity, cell-based
[2] = tested on: THP1-Dual; assay: Anti-inflammatory activity against LPS-stimulated human THP1-Dual cells assessed as reduction in STAT3 phosphorylation level incubated for 6 hrs by Western blot analysis; type: functional, cell-based; details: dose 0.33-3 µM, DDE = dose-dependent effect
[3] = tested on: THP1-Dual; assay: Anti-inflammatory activity against LPS-stimulated human THP1-Dual cells assessed as inhibition of IL-6 secretion incubated for 6 hrs followed by LPS stimulation by Western blot analysis; type: functional, cell-based; details: dose 0.33-3 µM, DDE = dose-dependent effect
[4] = tested on: THP1-Dual; assay: Anti-inflammatory activity against LPS-stimulated human THP1-Dual cells assessed as inhibition of IL-8 secretion incubated for 6 hrs followed by LPS stimulation by Western blot analysis; type: functional, cell-based; details: dose 0.33-3 µM, DDE = dose-dependent effect
[5] = tested on: THP1-Dual; assay: Anti-inflammatory activity against LPS-stimulated human THP1-Dual cells assessed as inhibition of IL-1 beta secretion incubated for 6 hrs followed by LPS stimulation by Western blot analysis; type: functional, cell-based; details: dose 0.33-3 µM, DDE = dose-dependent effect
[6] = tested on: Mus musculus; assay: Antiinflammatory activity in DSS-induced acute colitis C57BL/6 mouse model assessed as reduction stool softness by measuring DAI score at 1 to 3 mg/kg, po administered daily and measured upto 11 days; type: functional, organism-based; details: dose 1-3 mg/kg, time <= 11.0 day
[7] = tested on: Mus musculus; assay: Antiinflammatory activity in DSS-induced acute colitis C57BL/6 mouse model assessed as reduction in bloody stool by measuring DAI score at 1 to 3 mg/kg, po administered daily and measured upto 11 days; type: functional, organism-based; details: dose 1-3 mg/kg, time <= 11.0 day
[8] = tested on: Mus musculus; assay: Antiinflammatory activity in DSS-induced acute colitis C57BL/6 mouse model assessed as reduction in intestinal edema in colon by measuring histopathological score at 1 to 3 mg/kg, po by H and E staining based analysis; type: functional, organism-based; details: dose 1-3 mg/kg
[9] = tested on: Mus musculus; assay: Antiinflammatory activity in DSS-induced acute colitis C57BL/6 mouse model assessed as reduction in number of goblet cells in colon by measuring histopathological score at 1 to 3 mg/kg, po by H and E staining based analysis; type: functional, organism-based; details: dose 1-3 mg/kg
[10] = tested on: Mus musculus; assay: Antiinflammatory activity in DSS-induced acute colitis C57BL/6 mouse model assessed as reduction in lamina propria damage in colon by measuring histopathological score at 1 to 3 mg/kg, po by H and E staining based analysis; type: functional, organism-based; details: dose 1-3 mg/kg
[11] = tested on: Mus musculus; assay: Anti-inflammatory activity in TNBS induced IBD BALB/c mouse model assessed as reduction in bloody stool by measuring disease activity index score at 1 to 5 mg/kg via oral gavage administered daily for 12 days; type: functional, organism-based; details: dose 1-5 mg/kg, time 12.0 day
[12] = Toxicity in mouse assessed as change in body weight at 50 mg/kg measured upto 2 weeks; type: organism-based; details: in vivo, 336 h
[13] = Toxicity in mouse assessed as abnormal change in heart at 20 to 50 mg/kg, IG measured upto 2 weeks; type: organism-based; details: in vivo, po, 336 h, dose 20-50 mg/kg
[14] = Toxicity in mouse assessed as abnormal change in liver at 20 to 50 mg/kg, IG measured upto 2 weeks; type: organism-based; details: in vivo, po, 336 h, dose 20-50 mg/kg
[15] = Toxicity in mouse assessed as abnormal change in lung at 20 to 50 mg/kg, IG measured upto 2 weeks; type: organism-based; details: in vivo, po, 336 h, dose 20-50 mg/kg
[16] = Toxicity in mouse assessed as abnormal change in kidney at 50 mg/kg, IG measured upto 2 weeks; type: organism-based; details: in vivo, po, 336 h
[17] = Toxicity in mouse assessed as effect on white blood cell number at 50 mg/kg, IG measured upto 2 weeks; type: organism-based; details: in vivo, po, 336 h
[18] = Toxicity in mouse assessed as behavioral changes at 20 to 50 mg/kg, IG measured upto 2 weeks; type: organism-based; details: in vivo, po, 336 h, dose 20-50 mg/kg
[19] = tested on: Mus musculus; assay: Anti-inflammatory bowel disease activity in DSS-induced acute enteritis mouse model assessed as reversal of intestinal microbiota at 3 mg/kg; type: functional, organism-based
[20] = tested on: Mus musculus; assay: Anti-inflammatory bowel disease activity in DSS-induced acute enteritis mouse model assessed as decrese in bacteroides abundance at 3 mg/kg; type: functional, organism-based
[21] = tested on: THP1-Dual; assay: Inhibition of LPS induced IL-1 beta expression in human THP1-Dual cells at 1 uM incubated for 6 hrs; type: functional, cell-based
[22] = tested on: THP1-Dual; assay: Inhibition of LPS induced IL12b expression in human THP1-Dual cells at 1 uM incubated for 6 hrs; type: functional, cell-based
[23] = tested on: THP1-Dual; assay: Inhibition of LPS induced IL-23A expression in human THP1-Dual cells at 1 uM incubated for 6 hrs; type: functional, cell-based
[24] = tested on: THP1-Dual; assay: Downregulation of IFN-gamma in human THP1-Dual cells at 1 uM incubated for 6 hrs; type: functional, cell-based
[25] = tested on: THP1-Dual; assay: Downregulation of IFN-alpha in human THP1-Dual cells at 1 uM incubated for 6 hrs; type: functional, cell-based
[26] = tested on: THP1-Dual; assay: Downregulation of TNF alpha in human THP1-Dual cells at 1 uM incubated for 6 hrs; type: functional, cell-based
[27] = biological target: T1, Tyrosine-protein kinase JAK3 (Homo sapiens, UniProt P52333)
T1 sequence (P52333 whole entry): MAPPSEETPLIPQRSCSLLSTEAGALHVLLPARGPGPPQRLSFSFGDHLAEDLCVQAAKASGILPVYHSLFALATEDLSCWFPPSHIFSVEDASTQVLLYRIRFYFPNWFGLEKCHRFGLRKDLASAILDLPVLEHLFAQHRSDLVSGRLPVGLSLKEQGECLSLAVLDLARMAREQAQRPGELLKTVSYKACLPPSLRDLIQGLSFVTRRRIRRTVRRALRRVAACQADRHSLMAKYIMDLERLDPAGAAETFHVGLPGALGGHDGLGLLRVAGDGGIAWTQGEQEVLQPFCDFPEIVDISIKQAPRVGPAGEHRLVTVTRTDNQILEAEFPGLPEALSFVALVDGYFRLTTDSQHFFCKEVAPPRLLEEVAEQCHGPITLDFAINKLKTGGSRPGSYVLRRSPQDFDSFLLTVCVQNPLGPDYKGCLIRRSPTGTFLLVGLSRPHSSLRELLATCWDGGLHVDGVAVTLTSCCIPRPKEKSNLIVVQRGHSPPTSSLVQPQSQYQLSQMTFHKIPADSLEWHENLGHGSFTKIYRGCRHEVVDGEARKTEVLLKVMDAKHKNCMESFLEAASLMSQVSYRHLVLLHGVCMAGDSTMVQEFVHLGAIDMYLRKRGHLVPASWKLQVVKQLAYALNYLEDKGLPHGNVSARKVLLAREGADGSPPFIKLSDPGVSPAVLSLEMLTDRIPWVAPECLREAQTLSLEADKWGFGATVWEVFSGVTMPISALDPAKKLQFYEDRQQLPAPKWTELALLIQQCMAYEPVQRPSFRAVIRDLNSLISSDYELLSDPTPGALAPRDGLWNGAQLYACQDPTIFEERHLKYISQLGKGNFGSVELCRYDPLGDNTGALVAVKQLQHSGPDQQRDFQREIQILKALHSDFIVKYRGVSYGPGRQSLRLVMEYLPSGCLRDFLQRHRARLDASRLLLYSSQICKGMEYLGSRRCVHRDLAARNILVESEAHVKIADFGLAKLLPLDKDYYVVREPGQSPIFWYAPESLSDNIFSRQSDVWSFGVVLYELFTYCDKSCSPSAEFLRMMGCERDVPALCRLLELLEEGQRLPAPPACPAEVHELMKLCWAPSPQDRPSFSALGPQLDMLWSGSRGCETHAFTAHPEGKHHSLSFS
Description: Inhibition of JAK3 (unknown origin) using Kinase/Tyr 6 peptide as substrate incubated for 1 hrs in presence of ATP by fluorescence microplate reader analysis

With `Cc1nc2cnc3ccc(-c4cc(Cl)c(O)c(Cl)c4)cc3c2n1C1CCN(C)CC1` the IC50 at 24 h [1] was greater than 10 µM, the Activity [2] was “Dde” and the Activity [3] was “Dde”. For the same compound, the Activity [4] was “Dde”, the Activity [5] was “Dde” and the Activity [6] was “Active”. For the same compound, the Activity [7] was “Active”, the Activity [8] was “Active” and the Activity [9] was “Active”. The Activity [10] was “Active”, the Activity [11] was “Active” and the Activity [12] was “Non-Toxic”. The Activity [13] was “Non-Toxic”, the Activity [14] was “Non-Toxic” and the Activity [15] was “Non-Toxic”. The Activity [16] was “Non-Toxic”, the Activity [17] was “Non-Toxic” and the Activity [18] was “Non-Toxic”. For the same compound, the Activity [19] was “Active”, the Activity [20] was “Active” and the inhibition [21] was “Active”. The inhibition [22] was “Active”, the inhibition [23] was “Active” and the Activity [24] was “Active”. The Activity [25] was “Active”, the Activity [26] was “Active” and the IC50 [27] was 0.0462 µM.
